The record followed here is patent US20210047441A1, “ANTHOCYANIDIN COMPLEX” (priority 2012, published 2021).

Data set [1] in a line: Solubility of delphinidin chloride in aqueous cyclodextrin solutions (Example 1). Format: physicochemical. The settings on record: pure water, cyclodextrin concentration 0; stirred 20 hours at 30° C. in the dark, filtered 0.22 μm.
Method: In this example, the complexing of delphinidin by various cyclodextrins and the solubility of the complex in aqueous solution are studied.
Neutral aqueous solutions comprising 10% by weight of the respective cyclodextrin were prepared.
In each case 5 ml of the aqueous cyclodextrin solutions and of pure water were introduced into glass flasks. An excess of delphinidin chloride was then added.
The suspensions were stirred for 20 hours at 30° C. in the dark. They were then filtered through a membrane filter of 0.22 μm pore size.
Data set [2] in a line: Stability tests in aqueous solution, 0.9% NaCl at 37° C. (Example 5). Format: physicochemical. The settings on record: 0.9% NaCl solution, dark, start 1.584 mg/ml (complex), 0.0216 mg/ml (uncomplexed). Here is the method:
In order to determine the content of delphinidin chloride in the delphinidin-containing solutions, a reverse phase HPLC process similar to that already described above was used. The following reagents were used thereby:
The delphinidin content was determined after 1, 2, 3 and 4 hours.
The determination of the delphinidin content in the samples was calculated with the aid of Agilent ChemStation software using calibration with the described external standard.

Regarding `Oc1cc(O)c2cc(O)c(-c3cc(O)c(O)c(O)c3)[o+]c2c1.[Cl-]` [Delphinidin chloride], the “Achievable solubility, Delphinidin chloride” value in data set [1] worked out at 70 µg/mL. The “Delphinidin content as percentage of the starting concentration” value in data set [2] (0 h) worked out at 100%; in data set [2] (1 h), 8.3%; in data set [2] (2 h), 6.5%; in data set [2] (3 h) it was 5.6%; in data set [2] (4 h) it was 5.1%.
